According to patent US11964981B1, “Substituted pyrimido[4,5-b]indoles as CK2 inhibitors” (KING FAISAL UNIVERSITY, priority 2023, dated 2024):

What was measured:
[1] = tested on: MIAPaCa-2 (pancreas); experiment: In vitro cytotoxic activity MTT assay, MIAPaCa-2; format: cell-based; settings: Homo sapiens, MIA PaCa-2; MIAPaCa-2 (pancreas) cells, exposed for 96 hours; read-out: IC50, concentration of compound eliciting a 50% inhibition of cell proliferation
Procedure: (§1) Compounds 1-16 were screened for their in vitro cytotoxic activity utilizing a 3-(4,5-dimethyl-thiazol-2-yl)-2,5-diphenyltetrazolium bromide (MTT) assay against selected cancer human cell lines consisting of PC3 (prostate), HCT116 (colon), A375 (melanoma), H1299 (lung), MIAPaCa-2 (pancreas), HL60 (leukemia), MCF7 (breast), MDA-MB-231 (breast) (T. Mosmann, J. Immunol. Meth., 1983, 65, 55-63). The cells were cultured at 37° C. in RMPI1640 medium supplemented with 10% fetal bovine serum, 50 IU/mL penicillin, and 50 μg/mL streptomycin in a 5% CO2 incubator. All cells were sub-cultured 3 times/week by trypsinisation. Viable cells were seeded and allowed to adhere for 12 h before a test drug was added in 96-well plates at an initial density of 1.0×10^5 cells/mL. Tumor cell lines were separately exposed to various concentrations of the tested compounds followed by incubation at a temperature of 37° C. during 96 h inside a medium of fresh RMPI 1640. Cells were subsequently incubated at 37° C. using MTT at 0.5 mg/mL during 4 hours. After removal of supernatant, formazan crystals were dissolved in isopropanol and the optical density was measured at 570 nm. CX-4945 was used as a positive control.

[2] = tested on: H1299 (lung); experiment: In vitro cytotoxic activity MTT assay, H1299; format: cell-based; settings: Homo sapiens, NCI-H1299; H1299 (lung) cells, exposed for 96 hours; read-out: IC50, concentration of compound eliciting a 50% inhibition of cell proliferation
Procedure: as §1

[3] = tested on: HL60 (leukemia); experiment: In vitro cytotoxic activity MTT assay, HL60; format: cell-based; settings: Homo sapiens, HL-60; HL60 (leukemia) cells, exposed for 96 hours; read-out: IC50, concentration of compound eliciting a 50% inhibition of cell proliferation
Procedure: as §1

[4] = tested on: MDA-MB-231 (breast); experiment: In vitro cytotoxic activity MTT assay, MDA-MB-231; format: cell-based; settings: Homo sapiens; MDA-MB-231 (breast) cells, exposed for 96 hours; read-out: IC50, concentration of compound eliciting a 50% inhibition of cell proliferation
Procedure: as §1

[5] = tested on: HCT116 (colon); experiment: In vitro cytotoxic activity MTT assay, HCT116; format: cell-based; settings: Homo sapiens, HCT-116; HCT116 (colon) cells, exposed for 96 hours; read-out: IC50, concentration of compound eliciting a 50% inhibition of cell proliferation
Procedure: as §1

[6] = tested on: PC3 (prostate); experiment: In vitro cytotoxic activity MTT assay, PC3; format: cell-based; settings: Homo sapiens, Prostate cell; PC3 (prostate) cells, exposed for 96 hours; read-out: IC50, concentration of compound eliciting a 50% inhibition of cell proliferation
Procedure: as §1

[7] = target: T1, recombinant human CK2 (Homo sapiens, UniProt P68400); experiment: CK2 Kinase Assay (radiometric, 33P-ATP); format: biochemical; settings: final ATP concentration 15 μM, 10 min at 30° C., eight concentrations; read-out: protein kinase CK2 IC50
T1 construct: purchased Millipore
T1 sequence (P68400 whole entry): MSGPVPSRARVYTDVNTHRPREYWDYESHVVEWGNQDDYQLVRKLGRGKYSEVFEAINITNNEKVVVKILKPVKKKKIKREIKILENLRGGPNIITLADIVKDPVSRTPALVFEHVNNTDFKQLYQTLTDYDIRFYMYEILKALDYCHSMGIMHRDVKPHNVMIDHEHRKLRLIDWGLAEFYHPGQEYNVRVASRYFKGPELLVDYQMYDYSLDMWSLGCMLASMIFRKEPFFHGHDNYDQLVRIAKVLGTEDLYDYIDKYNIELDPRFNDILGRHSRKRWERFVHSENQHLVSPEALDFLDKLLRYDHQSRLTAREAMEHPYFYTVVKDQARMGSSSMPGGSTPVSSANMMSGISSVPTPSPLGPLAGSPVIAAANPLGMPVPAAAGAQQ
T1 sequence (P67870 whole entry partner): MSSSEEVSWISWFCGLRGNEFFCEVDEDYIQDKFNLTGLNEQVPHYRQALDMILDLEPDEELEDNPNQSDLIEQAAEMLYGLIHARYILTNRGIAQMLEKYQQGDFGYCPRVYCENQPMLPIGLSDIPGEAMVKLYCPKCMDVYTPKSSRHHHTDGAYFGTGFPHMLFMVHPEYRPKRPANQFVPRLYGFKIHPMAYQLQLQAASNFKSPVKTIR
Procedure: CK2 Kinase Assay was conducted using the protocol as described in Pierre F. et al; J. Med. Chem. 2011, 54, 635-654. The tested compounds in aqueous solution were added at a volume of 10 μL to a reaction mixture comprising 10 μL of assay dilution buffer (ADB; 20 mM MOPS, pH 7.2, 25 mM β-glycerol phosphate, 5 mM EGTA, 1 mM sodium orthovanadate, and 1 mM dithiothreitol), 10 μL of substrate peptide (RRRDDDSDDD, dissolved in ADB at a concentration of 1 mM), 10 μL of recombinant human CK2 (RROP-holoenzyme, 25 ng dissolved in ADB; Millipore). Reactions were initiated by the addition of 10 μL of ATP solution (90% 75 mMMgCl2, 75 μM ATP (final ATP concentration:15 μM) dissolved in ADB; 10% [γ-33P] ATP (stock 1 mCi/100 μL; 3000 Ci/mmol (Perkin-Elmer) and maintained for 10 min at 30° C. The reactions were quenched with 100 μL of 0.75% phosphoric acid and then transferred to and filtered through a phosphor cellulose filter plate (Millipore). After washing each well five times with 0.75% phosphoric acid, the plate was dried under vacuum for 5 min and, following the addition of 15 μL of scintillation fluid to each well, the residual radioactivity was measured using a Wallac luminescence counter. The IC50 values were derived from eight concentrations of test inhibitors.

[8] = tested on: MCF7 (breast); experiment: In vitro cytotoxic activity MTT assay, MCF7; format: cell-based; settings: Homo sapiens; MCF7 (breast) cells, exposed for 96 hours; read-out: IC50, concentration of compound eliciting a 50% inhibition of cell proliferation
Procedure: as §1

[9] = tested on: A375 (melanoma); experiment: In vitro cytotoxic activity MTT assay, A375; format: cell-based; settings: Homo sapiens, A-375; A375 (melanoma) cells, exposed for 96 hours; read-out: IC50, concentration of compound eliciting a 50% inhibition of cell proliferation
Procedure: as §1

- IC50 [7]: 68 nM
SMILES: O=C(O)c1ccc2[nH]c3ncnc(Nc4cccc(Cl)c4)c3c2c1 [Example 1, 4-((3-chlorophenyl)amino)-9H-pyrimido[4,5-b]indole-6-carboxylic acid]
- IC50 [1]: 900 nM
- IC50 [2]: 4500 nM
- IC50 [3]: 3000 nM
- IC50 [4]: 2900 nM
- IC50 [5]: 1800 nM
- IC50 [6]: 1400 nM
- IC50 [8]: 4600 nM
- IC50 [9]: 3300 nM
